# Data: patent publication US20180284095A1, “BIOMARKERS ASSOCIATED WITH LSD1 INHIBITORS AND USES THEREOF” (Oryzon Genomics, S.A., priority 2015, published 2018)
# Assays:
# [1] = system: S100A9; experiment: Microarray gene expression, brain of Hsd:ICR (CD1) mice, MTD study (Example 6); assay type: in vivo, mouse; conditions: brain day 5, male CD1 mice pool
# Description: (§1) Total RNA was extracted from samples using the RNeasy extraction kit (Qiagen). The quality and concentration of the RNA was analyzed using the Agilent 2100 bioanalyzer and NanoDrop™ ND-1000 (Thermo Scientific). Samples with RNA integrity number (RIN)<6.0 were discarded. Total RNA (0.5 μg) amplification and labelling with Cy3 or Cy5 was carried out using the Eberwein mRNA amplification procedure (Van Gelder et al, Proc Natl Acad Sci USA 1990, 87:1663-1667) employing the MessageAmp™ aRNA amplification kit from Ambion (Applied Biosystems) following the manufacturer's instructions with minor modifications. As hybridization controls, plant mRNAs were transcribed from a plasmid containing the Zea mays Xet (xyloglucan endo-transglycosylase) cDNA and from a plasmid containing the Zea mays Zmmyb42 cDNA, independently prepared Cy3 and Cy5 labelled aRNA from these two RNAs using the Eberwein mRNA amplification procedure (as disclosed in Cerdà et al, Gen Comp Endocrinol 2008, 156:470-481).
# (§2) The Cy3- and Cy5-labelled cRNAs and spikes were combined and hybridized to the microarray described in Example 2.6 for 17 h at 60° C. using Agilent's gaskets G2534-60002, G2534A hybridization chambers and DNA Hybridization Oven G2545A, according to the manufacturer's instructions. More specifically, equal amounts of Cy3 and Cy5 labeled Xet aRNA as well as equal amounts of Cy3 and Cy5 labeled Zmmyb42 aRNA were spiked into each mixture hybridized to the array. Arrays were washed and raw data were obtained using Agilent's DNA Microarray Scanner G2505B and Feature Extraction software (v10.1). The raw fluorescence intensity data were processed using applicant's proprietary software, and consists in the following operations:
# (§3) Data normalization was carried out by an improved version of the nonlinear Q-splines normalization method (Workman et al., Genome Biol 2002, 3(9):research0048.1-0048.16). Normalization results were presented graphically as MA plots, as first described by Dudoit et al (Dudoit et al, Statistica Sinica, 2002, 12:111-139). Each point corresponds to a probe of the DNA array. M values (vertical axis) are the log-differential expression ratios. A values (horizontal axis) are the log-intensities of the spots. M and A are calculated from the Cy5 and Cy3 intensity values as of each spot. The DNA Array data is normalized using an improved version of non-linear Q-Splines normalization described by Workman et al., Genome Biol 2002, 3(9):research0048.1-0048.16. This process is useful to correct the deviation of the M values from the statistical assumption that most of the spots have M=0 in MA plots. […]. The data used to calculate the normalization fitting curve is the totality of the raw measurement dataset, excluding the signals for the probes for the spiked-in plant RNA controls and negative controls. In order to be able to normalize properly the data among all the experiments, the probe-set must include an important group of genes that should have no change (M=0) in the experiment. The normalization function is then applied to all the data, including controls.
# (§4) Normalized and log-transformed data were used to calculate log 2 (sample/control) and Fold Change (FC) values. No background subtraction was applied to the signal intensity values during data processing, permitting robust selection of differentially expressed genes with low expression levels at the cost of potential sub-estimation of change when intensity levels are close to the array background level.
# (§5) Male Hsd:ICR (CD1®) mice were maintained in air- and temperature-controlled cages with regular supply of water and food. A maximum of 3 mice were raised per cage. Three mice were assigned to each group. Before the first administration, each mouse was labeled and weighed. Test compounds were administered orally using 1 ml syringes using animal feeding needles proper for mice at 10 ml/kg as follows. […]
# [2] = system: S100A8; experiment: as above; assay type: in vivo, mouse; conditions: brain day 5, male CD1 mice pool
# Description: as §1, §2, §3, §4, §5
# [3] = 3 mg/kg oral x5 days vs vehicle
# [4] = 10 mg/kg oral x5 days vs vehicle
# [5] = 30 mg/kg oral x5 days vs vehicle
# [6] = 100 mg/kg oral x5 days vs vehicle
substance,measurement,setting,value
"(−) 5-((((trans)-2-(4-(benzyloxy)phenyl)cyclopropyl)amino)methyl)-1,3,4-oxadiazol-2-amine [Compound 1]",Hybridization signal sample_Cy5 S100A9,[1]; 3 mg/kg oral x5 days,97.9225
same,log2 (sample/control) S100A9,[1]; [3],−1.935
same,Hybridization signal sample_Cy5 S100A9,[1]; 10 mg/kg oral x5 days,46.2723
same,log2 (sample/control) S100A9,[1]; [4],−2.962
same,Hybridization signal sample_Cy5 S100A9,[1]; 30 mg/kg oral x5 days,45.4319
same,log2 (sample/control) S100A9,[1]; [5],−2.9408
same,Hybridization signal sample_Cy5 S100A9,[1]; 100 mg/kg oral x5 days,56.7063
same,log2 (sample/control) S100A9,[1]; [6],−2.792
same,Hybridization signal sample_Cy5 S100A8,[2]; 3 mg/kg oral x5 days,55.2994
same,log2 (sample/control) S100A8,[2]; [3],−1.452
same,Hybridization signal sample_Cy5 S100A8,[2]; 10 mg/kg oral x5 days,39.6385
same,log2 (sample/control) S100A8,[2]; [4],−1.81
same,Hybridization signal sample_Cy5 S100A8,[2]; 30 mg/kg oral x5 days,40.5977
same,log2 (sample/control) S100A8,[2]; [5],−1.859
same,Hybridization signal sample_Cy5 S100A8,[2]; 100 mg/kg oral x5 days,40.4596
same,log2 (sample/control) S100A8,[2]; [6],−1.786
